# From patent US20130296346A1, “DIPHENYL-AMINE DERIVATIVES: USES, PROCESS OF SYNTHESIS AND PHARMACEUTICAL COMPOSITIONS” (Faes Farma, S.A., priority 2010, published 2013)
# Legend:
# resting human PBLs = assay: Apoptosis of resting human PBLs; format: cell-based
# Experimental: To isolate normal peripheral blood lymphocytes (PBLs), mononuclear cells were obtained from fresh human peripheral blood from healthy volunteers by centrifugation on Ficoll-Hypaque density gradients, washed with phosphate-buffered saline (PBS), and resuspended in RPMI-1640 medium containing 10% (v/v) heat-inactivated FBS, 2 mM L-glutamine, 100 U/ml penicillin, and 100 μg/ml streptomycin as described (Cabaner et al. Br. J. Pharmacol 127:813-825.1999). Monocytes were depleted by culture dish adherence after overnight incubation. Nonadherent cells (lymphocytes) were washed with PBS and collected. PBL preparations were typically 70-75% CD3^+, 24-29% CD 19^+, and less than 0.4% CD 14^+.
# SW260 = assay: In vitro cytotoxicity, SRB method; format: cell-based; conditions: SW260 colon cancer, 72 hours
# Experimental: (§1) SRB method was followed (Wieland, V., et al. Sulforhodamine B Assay and Chemosensitivity. Chemosensitivity, volume 1, In Vitro Assays. Methods in Molecular Medicine. Edited by Rosalyn D. Blumenthal. Humana Press, Totowa, N.J., 2005).
# (§2) Cells were seeded in microplates of 96 wells. In each well, according to the cell type, specific number of cells were seeded in 200 microliters. In these conditions, cells were cultured for 3 days, with the aim of reaching their exponential phase of growing to assay the product cytotoxicity. The product concentrations were prepared just the day of treatments, after thawing the stock solutions (10 mM). After harvesting the microplate with the seeded cells for 3 days, the culture medium was discarded and replaced by 150 μl of fresh medium in each well. This was followed by the addition of 50 μl of the corresponding product dilution so as the final concentration in the final volume of 200 microliters in each well was the one scheduled. The products, at the assayed concentrations, were in contact with the cell growing monolayer for 72 hours and incubated at 37° C., 5% CO2. Finally, cells were growth arrested adding […] of cold TCA (Trichloroacetic acid) 50%, (final concentration of 10% in the well). Microplate was then maintained at 4° C. for over 60 min to fix cellular proteins till initiation of washing and staining with SRB.
# (§3) Cell viability (%)=(Cell population of the treated well/Maximum cell population of the Standard curve)×100.
# (§4) Mean viability values for each concentration were calculated from the values obtained for each well in which that concentration was assayed.
# HCT116 = assay: In vitro cytotoxicity, SRB method; format: cell-based; conditions: Homo sapiens, HCT-116, HCT116 colon cancer, 72 hours
# Experimental: as §1, §2, §3, §4
# HepG2 = assay: In vitro cytotoxicity, SRB method; format: cell-based; conditions: Homo sapiens, HepG2 hepatoma, 72 hours
# Experimental: as §1, §2, §3, §4
# Malm-3M = assay: In vitro cytotoxicity, SRB method; format: cell-based; conditions: Malm-3M melanoma, 72 hours
# Experimental: as §1, §2, §3, §4
# B16-F1 = assay: In vitro cytotoxicity, SRB method; format: cell-based; conditions: Mus musculus, B16-F1 melanoma, 72 hours
# Experimental: as §1, §2, §3, §4
# NCI-H460 = assay: In vitro cytotoxicity, SRB method; format: cell-based; conditions: Homo sapiens, NCI-H460 lung, 72 hours
# Experimental: as §1, §2, §3, §4
# SF268 = assay: In vitro cytotoxicity, SRB method; format: cell-based; conditions: Homo sapiens, SF-268, SF268 glioblastoma, 72 hours
# Experimental: as §1, §2, §3, §4
# TNFr = assay: TNF-R transfectant, NF-kB reporter gene (secreted phosphatase); format: cell-based
# Text: (§5) The secreted phosphatase sPase was used as reporter for its ability to process the luminiscent or colorimetric substrates from the culture based in the hydrolysis of substrates chemically similar to nitrophenol phosphate. Five generation of transfectants were developed as described: • 1. IL-4R. Chains of Type II IL-4-r, which is the common one within non-haematopoietic cells were transfected, as well as STAT6 which the key molecule in the nuclear signalling route by IL-4-r, and finally a reporter gene to measure the response to STAT6 was introduced. Endogenously, cells had Janus Associated Kinase 1 (JAK1) which was previously known to be associated with STAT6 via p62/aPKC. • 2. IL-6R. Chains of IL-6R were transfected and a reporter gene able to measure the response to STAT3 was introduced. As it is well known, STAT3 is a transductional molecule and a nuclear factor physiologically produced in the standard responses IL-6/IL-6R. • 3. TNF-R. In this case, a reporter gene able to measure the response to NF-kB was introduced, as this is the transductional molecule and the nuclear factor physiologically produced in response to TNF-alpha. […] LPS-Receptor complex represented by TLR4/MD2/CD14. Reporter genes with elements of response to NFkB were used as in the previous case, but the selectivity was achieved by the co-transfection of components of the LPS-R complex. The LPS is captured from the serum through the union to one plasma protein known as LBP, which transfers the LPS to the membrane protein CD14. The LBP inclusion accounts for an increase of 1000-fold the sensitivity versus media or cultures LBP-frees. The molecule CD14 is not an LPS-receptor but a module of the receptor complex which captures LBP, allowing the transference of LPS in the cellular surface to MD2. CD14 has not a cytoplasmic tail and it is not able to be a signal transducer but it substantially increases the sensitivity of the system. In a similar way, MD2 is not a signal transducer but the combination of CD14 and MD2 allows the increase of the sensitivity by 10000-fold. • 5. IL-1R. Reporter genes with elements of response to NFkB were used as in the previous case, but the selectivity was achieved by the expression of components belonging to the receptor complex IL-1R. IL-1R belongs to a receptors superfamily which uses TIR transduction domains (Toll-like IL-1R). It is known that the IL-1R route activates mitogen-activated protein kinases (MAPK) of JNK type which in turn generate nuclear factors transcriptionally active as AP-1. The reporter gene includes NFkB and AP-1 sites chained in order to simulate the physiological situation.
# [1] = test system: haematological cancer cell lines; assay: Apoptosis induction in haematological cancer cell lines; format: cell-based
# IL4r = assay: IL-4R transfectant, STAT6 reporter gene (secreted phosphatase); format: cell-based
# Text: as §5
# IL6r = assay: IL-6R transfectant, STAT3 reporter gene (secreted phosphatase); format: cell-based
# Text: as §5
# [2] = Cytotoxicity for human non-tumoral cells, XTT; format: cell-based; conditions: Fibroblasts
# Experimental: (§6) The cytotoxicity of the compounds for human non-tumoral cells was studied in fibroblasts, HUVEC cells and resting PBLs (Peripheral Blood lymphocytes).
# (§7) Distinct amounts of exponentially growing cells were seeded in 96-well flat-bottomed microtiter plates in a final volume of 100 μl were seeded in 96-well flat-bottomed microtiter plates, and incubated at 37° C. in a humidified atmosphere of 5% CO2/95% air for 24 h to allow the cells attach to the plates. Then, cells were incubated with different concentrations of the assayed compound at 37° C. under the 5% CO2/95% air atmosphere for 72 h. Cell proliferation was quantified using the XTT cell proliferation kit (Roche Molecular Biochemicals, Mannheim, Germany) following the manufacturer's instructions. Briefly, a freshly prepared mixture solution (50 μl) of XTT labelling reagent and PMS (N-methyldibenzopyrazine methyl sulfate) electron coupling reagent was added to each well. The resulting mixtures were further incubated for 4 h in a humidified atmosphere (37° C., 5% CO2), and the absorbance of the formazan product generated was measured with a microtiter plate reader at a test wavelength of 490 nm and a reference wavelength of 655 nm. The IC50 (50% inhibitory concentration) was then calculated as the drug concentration causing a 50% inhibition of cell proliferation. Data are shown as mean values of four independent experiments each performed in triplicate.
# [3] = Cytotoxicity for human non-tumoral cells, XTT; format: cell-based; conditions: HUVEC cells (primary, from human cords)
# Experimental: as §6
# HUVEC cells were obtained by treating human cords with collagenase type I, […] in Hank's medium incubating 20 minutes at 37° C. Cells were collected afterwards and cultivated in medium M199 with supplements of 20% FBS, 1% P/S and 25 mg/500 ml of medium ECGF, Cells were grown on a 0.2% gelatin matrix.
# as §7
# TNF-α = assay: Murine endotoxemia (LPS i.p.), blood serum TNF-α; format: in vivo, mice; conditions: orally 100 mg/kg; 90 min after LPS 1 mg/kg i.p.
# Experimental: MATERIAL AND METHODS: Male CD1 mice, weighing between 30 and 35 g and housed under controlled standard conditions, were used. These animal fasted (for 14-16 hours; 12 per group; 6 per cage≅500 cm^2), with a nutritional solution made of Saccharose (8%) and NaCl (0.2%), ad libitum. Oral test treatments were given in suspensions (vehicle: Tween 80 0.1%—NaCl 0.9%), in a 10 ml/kg volume ratio. One hour later, murine endotoxemia was induced by intraperitoneal injection of Lipopolysaccharides from Escherichia coli serotype 055:B5 (Sigma L-2880), at 1 mg/kg dose and in a 10 ml/kg volume ratio, dissolved in sterile saline. Ninety minutes after LPS injection (i.p.), under Isoflurane anaesthesia, 0.5-0.8 ml of blood was extracted by cardiac punction; the blood sample was centrifuged (6000 rpm; 10 minutes; 4° C.) and 2 serum samples were taken and kept frozen at −70° C. until serum TNF-α concentrations were measured (EIA: Mouse TNF/TNF SF1A Quantikine from R&D Systems).
# [4] = test system: colorectal cancer cells from patients with Kras mutation; assay: Mutated Kras colon cancer orthotopic animal model; format: in vivo, mice; conditions: compared with vehicle control, FIG. 4A
# Experimental: Using an animal model based on colorectal cancer cells from patients with Kras mutation, implanted on mice in the colon area (Yao, M. Cyclooxygenase-2 selective inhibition with NS-398 suppresses proliferation and invasiveness and delays liver metastasis in colorectal cancer. Br. J. Cancer, 2004 Feb. 9; 90(3):712-9), the effects of Compound 3 were tested.
# IL6 = assay: Blood serum IL6 in mice treated with parathyroid hormone; format: in vivo; conditions: orally 25 mg/kg; pTH-rp treated mice
# Experimental: MATERIAL AND METHODS: Male CD1 mice, between 5 and 7 week and housed under controlled standard conditions, were used. These animal fasted (for 14-16 hours; 12 per group; 6 per cage≅1100 cm^2), with solid and liquid food ad libitum. During 5 days, the animals were treated with 8 i.p. administration of pTH-rp (1-34, human) 15 microgram/0.1 ml/injection
# Oral test treatments were given in suspensions (vehicle: Tween 80 0.1%—NaCl 0.9%), in a 10 ml/kg volume ratio., one hour later of pTH injection.
# Two hours after last pTH administration and under Isoflurane anaesthesia, 0.5-0.8 ml of blood was extracted by cardiac punction; the blood sample was centrifuged (6000 rpm; 10 minutes; 4° C.) and 2 serum samples were taken and kept frozen at −70° C. until serum IL6 concentrations were measured (EIA: reference number 555240. BD Bioscience).
Structure (SMILES),% Apoptosis PBLs (resting human PBLs; 10^−4 M),% Apoptosis PBLs (resting human PBLs; 10^−5 M),effect on PBLs (resting human PBLs; even at 10^−4 M),melting point,IC50 (SW260),IC50 (HCT116),IC50 (HepG2),IC50 (Malm-3M),IC50 (B16-F1),IC50 (NCI-H460),IC50 (SF268),Inhibition of TNFr (TNFr),concentration inducing apoptosis in haematological cancer cell lines [1],Inhibition of IL4r (IL4r),Inhibition of IL6r (IL6r),IC50 at 72 h [2],IC50 at 72 h [3],reduction of blood serum levels of TNF-α in relation to vehicle group (TNF-α),tumour volume of human colorectal cancer [4],reduction of blood serum levels of IL6 in relation to vehicle group (IL6)
"C(CCCNCc1cccs1)=C(c1ccccc1)c1ccccc1.Cl [Compound 6, (5,5-diphenyl-pent-4-enyl)-thiophen-2-ylmethyl-amine hydrochloride]",7.2%,4.1%,hardly affect PBLs,161 to 161.6 °C,13 µM,8.1 µM,5 to 50 µM,13 µM,16 µM,17 µM,29 µM,Inhibition of TNFr total,~10^−6 M,Inhibition of IL4r total,Inhibition of IL6r total,24 µM,27 µM,–,–,–
"C(CCCNCc1ccco1)=C(c1ccccc1)c1ccccc1.Cl [Compound 8, (5,5-diphenyl-pent-4-enyl)furan-2-ylmethylamine hydrochloride]",–,–,–,139 to 141.3 °C,5 to 50 µM,5 to 50 µM,5 to 50 µM,16 µM,14 µM,5 to 50 µM,5 to 50 µM,Inhibition of TNFr total,–,Inhibition of IL4r total,Inhibition of IL6r total,–,–,37.7%,–,–
"O=c1[nH]cc(F)c(=O)[nH]1 [Compound 5-FU, 5-F uracil, reference compound]",–,–,–,–,–,–,–,–,–,–,–,–,–,–,–,–,–,–,not active in the tested experimental conditions,–
"Cl.FC(F)(F)Oc1cccc(CNCCCCC=C(c2ccccc2)c2ccccc2)c1 [Compound 15, (6,6-diphenyl-hex-5-enyl)-(3-trifluoromethoxybenzyl)amine hydrochloride]",–,–,–,96.6 to 98.5 °C,–,–,–,–,–,–,–,–,–,–,–,–,–,–,–,64.58%
"C(CCCNCc1nc2ccccc2[nH]1)=C(c1ccccc1)c1ccccc1.Cl [Compound 11, (1H-benzoimidazol-2-ylmethyl)-(5,5-diphenyl-pent-4-enyl)amine hydrochloride]",–,–,–,251 to 253.8 °C,–,–,–,–,–,–,–,Inhibition of TNFr total,–,Inhibition of IL4r total,Inhibition of IL6r total,–,–,35.42%,–,–
